The values below come from PMC8080530, “Glucocorticoid receptor Thr524 phosphorylation by MINK1 induces interactions with 14-3-3 protein regulators” (The Journal of Biological Chemistry, 2021).

SMILES strings stand for the structures. Non-standard residues stand in square brackets, D forms with d. Residues, ends and D or L forms follow the SMILES beside them. pT = C[C@@H](OP(=O)(O)O)[C@H](N)C(=O)O; pS = N[C@@H](COP(=O)(O)O)C(=O)O

In this test the target is T1, 14-3-3ζ (Homo sapiens, UniProt P63104).
T1 construct: Full-length expression and purification of 14-3-3; made in house; host or cells: E. coli BL21 (DE3)STAR
T1 sequence (P63104 1-245): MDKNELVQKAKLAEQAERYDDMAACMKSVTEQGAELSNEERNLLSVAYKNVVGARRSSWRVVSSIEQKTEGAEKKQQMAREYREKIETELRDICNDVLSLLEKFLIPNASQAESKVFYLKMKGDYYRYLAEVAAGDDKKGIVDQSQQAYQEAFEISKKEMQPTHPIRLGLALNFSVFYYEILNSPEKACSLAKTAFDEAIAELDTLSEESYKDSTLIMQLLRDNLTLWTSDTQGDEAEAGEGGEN
The test is described as follows: FP assay with GR phosphorylated peptides and 14-3-3ζ. It counts as binding. Conditions: read-out: PKd with 14-3-3ζ (converted). As to the method: After 30-min incubation at RT, the plates were read on a plate reader PHERAstar (BMG LABTECH GmbH) for FP signal using […] and standard excitation (485 nm) and emission (520 nm). Measurements were performed as triplicates. Binding data were fit to a standard Hill equation using the software Genedata Screener. The figures were made using the software GraphPad Prism 8. FP data were expressed as millipolarization (mP) units, and the dynamic range (ΔmP) was the difference of the signals from the bound peptide and free peptide. Errors are the standard error of the fit.
In the case of `CC[C@H](C)[C@H](NC(=O)[C@H](C)NC(=O)[C@@H](N)CCCCN)C(=O)N[C@H](C(=O)N1CCC[C@H]1C(=O)N[C@@H](C)C(=O)N[C@H](C(=O)N[C@@H](CC(C)C)C(=O)N1CCC[C@H]1C(=O)N[C@@H](CCC(N)=O)C(=O)N[C@@H](CC(C)C)C(=O)N[C@H](C(=O)N1CCC[C@H]1C(=O)NCC(=O)NCC(=O)NCC(=O)NCC(=O)NCC(=O)N[C@@H](CCCNC(=N)N)C(=O)N[C@@H](CO)C(=O)N[C@@H](Cc1ccc(O)cc1)C(=O)N[C@@H](CCCNC(=N)N)C(=O)N[C@@H](CCC(N)=O)C(=O)N[C@@H](CO)C(=O)N[C@@H](COP(=O)(O)O)C(=O)N[C@@H](C)C(=O)N[C@@H](CC(N)=O)C(=O)N[C@@H](CC(C)C)C(=O)N[C@@H](CC(C)C)C(=O)N[C@@H](CS)C(=O)N[C@@H](Cc1ccccc1)C(=O)O)[C@@H](C)O)[C@@H](C)OP(=O)(O)O)C(C)C` [GR_T519A] (H-KAIVPA[pT]LPQLTPGGGGGRSYRQS[pS]ANLLCF-OH), the Kd was 63.1 nM.
For `CC[C@H](C)[C@H](NC(=O)[C@@H](NC(=O)[C@@H](N)CCCCN)[C@@H](C)O)C(=O)N[C@H](C(=O)N1CCC[C@H]1C(=O)N[C@@H](C)C(=O)N[C@@H](C)C(=O)N[C@@H](CC(C)C)C(=O)N1CCC[C@H]1C(=O)N[C@@H](CCC(N)=O)C(=O)N[C@@H](CC(C)C)C(=O)N[C@H](C(=O)N1CCC[C@H]1C(=O)NCC(=O)NCC(=O)NCC(=O)NCC(=O)NCC(=O)N[C@@H](CCCNC(=N)N)C(=O)N[C@@H](CO)C(=O)N[C@@H](Cc1ccc(O)cc1)C(=O)N[C@@H](CCCNC(=N)N)C(=O)N[C@@H](CCC(N)=O)C(=O)N[C@@H](CO)C(=O)N[C@@H](COP(=O)(O)O)C(=O)N[C@@H](C)C(=O)N[C@@H](CC(N)=O)C(=O)N[C@@H](CC(C)C)C(=O)N[C@@H](CC(C)C)C(=O)N[C@@H](CS)C(=O)N[C@@H](Cc1ccccc1)C(=O)O)[C@@H](C)O)C(C)C` [GR_T524A-pS617] (H-KTIVPAALPQLTPGGGGGRSYRQS[pS]ANLLCF-OH) the value was 126000 nM; for `CC[C@H](C)[C@H](NC(=O)[C@@H](NC(=O)[C@@H](N)CCCCN)[C@@H](C)O)C(=O)N[C@H](C(=O)N1CCC[C@H]1C(=O)N[C@@H](C)C(=O)N[C@H](C(=O)N[C@@H](CC(C)C)C(=O)N1CCC[C@H]1C(=O)N[C@@H](CCC(N)=O)C(=O)N[C@@H](CC(C)C)C(=O)N[C@@H](C)C(=O)N1CCC[C@H]1C(=O)NCC(=O)NCC(=O)NCC(=O)NCC(=O)NCC(=O)N[C@@H](CCCNC(=N)N)C(=O)N[C@@H](CO)C(=O)N[C@@H](Cc1ccc(O)cc1)C(=O)N[C@@H](CCCNC(=N)N)C(=O)N[C@@H](CCC(N)=O)C(=O)N[C@@H](CO)C(=O)N[C@@H](COP(=O)(O)O)C(=O)N[C@@H](C)C(=O)N[C@@H](CC(N)=O)C(=O)N[C@@H](CC(C)C)C(=O)N[C@@H](CC(C)C)C(=O)N[C@@H](CS)C(=O)N[C@@H](Cc1ccccc1)C(=O)O)[C@@H](C)OP(=O)(O)O)C(C)C` [GR_T529A] (H-KTIVPA[pT]LPQLAPGGGGGRSYRQS[pS]ANLLCF-OH), 50.1 nM.
For the compound `CC[C@H](C)[C@H](NC(=O)[C@@H](NC(=O)[C@@H](N)CCCCN)[C@@H](C)O)C(=O)N[C@@H](C)C(=O)N1CCC[C@H]1C(=O)N[C@@H](C)C(=O)N[C@H](C(=O)N[C@@H](CC(C)C)C(=O)N1CCC[C@H]1C(=O)N[C@@H](CCC(N)=O)C(=O)N[C@@H](CC(C)C)C(=O)N[C@H](C(=O)N1CCC[C@H]1C(=O)NCC(=O)NCC(=O)NCC(=O)NCC(=O)NCC(=O)N[C@@H](CCCNC(=N)N)C(=O)N[C@@H](CO)C(=O)N[C@@H](Cc1ccc(O)cc1)C(=O)N[C@@H](CCCNC(=N)N)C(=O)N[C@@H](CCC(N)=O)C(=O)N[C@@H](CO)C(=O)N[C@@H](COP(=O)(O)O)C(=O)N[C@@H](C)C(=O)N[C@@H](CC(N)=O)C(=O)N[C@@H](CC(C)C)C(=O)N[C@@H](CC(C)C)C(=O)N[C@@H](CS)C(=O)N[C@@H](Cc1ccccc1)C(=O)O)[C@@H](C)O)[C@@H](C)OP(=O)(O)O` [GR_V521A] (H-KTIAPA[pT]LPQLTPGGGGGRSYRQS[pS]ANLLCF-OH), the Kd is 39.8 nM.
